According to patent US20160316790A1, “BETA-HINOKITIOL DERIVATIVES AND APPLICATIONS THEREOF IN PREPARATION OF ANIMAL ANTIBACTERIAL AGENTS AND ANTIBACTERIAL GROWTH PROMOTERS USED IN FEED” (GUANGZHOU INSIGHTER BIOTECHNOLOGY CO., LTD., priority 2013, published 2016):
Converted amounts (≈) assume the structure as drawn. “And” between values parts separate entries of the source, which are not always exact repeats. Equal values may be shown once. Read-outs that look alike come from different tables or passages of the source.

Experiments:
haemophilus parasuis = assay: Minimum inhibitory concentration in vitro, doubling dilutions; assay type: cell-based; conditions: Glaesserella parasuis
clostridium perfringens = assay: microbe, parasite or virus in culture; assay type: cell-based
vibrio = assay: Minimum inhibitory concentration in vitro, doubling dilutions; assay type: cell-based
streptococcus = assay: as above; assay type: cell-based
escherichia coli = assay: as above; assay type: cell-based
riemerella anatipestifer [1] = assay: as above; assay type: cell-based
salmonellas = assay: as above; assay type: cell-based
[2] = test system: major animal pathogenic bacteria; assay: In vitro antibacterial activity (MICs), overall statement; assay type: cell-based; conditions: Tables 1 to 4
[3] = Application effect test of β-hinokitiol derivatives in broiler feeds; assay type: in vivo, fast-grown type yellow feather broilers; conditions: 14 days; for Average daily weight gain / Average weight gain / Total consumption / feed conversion efficiency: broilers
Description: 598 fast-grown type yellow feather broilers (female) aged 30-days were divided into five groups according to table 5. […] During the test, the broilers ate food and drank water freely. The test lasted for 14 days. […] [table]

riemerella anatipestifer [4] = assay: Protection effect against attacking and infection of riemerella anatipestifer; conditions: ducks, 5 × 10^7 CFU/bird, 7 days
[5] = Effect of β-hinokitiol derivatives on diarrhea of weaned pigs; assay type: in vivo
Description: 80 25-day-old weaned pigs were randomly divided into eight groups according to table 7, 10 pigs in each group. […] During the testing, the pigs ate food and drank water freely with temperature preservation. The test lasted for 10 days.

staphylococcus aureus = assay: Minimum inhibitory concentration in vitro, doubling dilutions; assay type: cell-based
[6] = strain 2-3A, read-out: Minimum inhibitory concentration (MIC), Haemophilus parasuis 2-3A
[7] = read-out: Minimum inhibitory concentration (MIC), Clostridium JM1210B
[8] = read-out: Minimum inhibitory concentration (MIC), Clostridium JM1212A
[9] = read-out: Minimum inhibitory concentration (MIC), Vibrio VP3
[10] = read-out: Minimum inhibitory concentration (MIC), Vibrio VP5
[11] = strain KP1307-1, read-out: Minimum inhibitory concentration (MIC), Streptococcus KP1307-1
[12] = strain TS1205-2, read-out: Minimum inhibitory concentration (MIC), Streptococcus TS1205-2
[13] = read-out: Minimum inhibitory concentration (MIC), Eserichia coli HZ1308-1
[14] = read-out: Minimum inhibitory concentration (MIC), Eserichia coli SS1107A
[15] = read-out: Minimum inhibitory concentration (MIC), Riemerella anatipestifer SCAU03
[16] = strain WS, read-out: Minimum inhibitory concentration (MIC), Riemerella anatipestifer WS
[17] = strain FS1303B, read-out: Minimum inhibitory concentration (MIC), Salmonellas FS1303B
[18] = strain GD1303-3, read-out: Minimum inhibitory concentration (MIC), Salmonellas GD1303-3
[19] = read-out: Minimum inhibitory concentration (MIC), Haemophilus parasuis S5A
[20] = read-out: Minimum inhibitory concentration (MIC), Staphylococcus aureus PNB14
[21] = read-out: Minimum inhibitory concentration (MIC), Staphylococcus aureus SA10

Compound | MIC (haemophilus parasuis; [6]) [µg/mL] | MIC (clostridium perfringens; [7]) [µg/mL] | MIC (clostridium perfringens; [8]) [µg/mL] | MIC (vibrio; [9]) [µg/mL] | MIC (vibrio; [10]) [µg/mL] | MIC (streptococcus; [11]) [µg/mL] | MIC (streptococcus; [12]) [µg/mL] | MIC (escherichia coli; [13]) [µg/mL] | MIC (escherichia coli; [14]) [µg/mL] | MIC (riemerella anatipestifer [1]; [15]) [µg/mL] | MIC (riemerella anatipestifer [1]; [16]) [µg/mL] | MIC (salmonellas; [17]) [µg/mL] | MIC (salmonellas; [18]) [µg/mL] | MIC (haemophilus parasuis; [19]) [µg/mL] | other results
CCC(C)c1cccc(=O)c(O)c1 (stereo not shown) [IST_009_008, 4-(sec-butyl)-2-hydroxycyclohepta-2,4,6-trienone] | 0.39 (≈ 2.19 µM) | 12.5 (≈ 70.1 µM) | 12.5 (≈ 70.1 µM) | 50 (≈ 281 µM) | 25 (≈ 140 µM) | 50 (≈ 281 µM) | 50 (≈ 281 µM) | 25 (≈ 140 µM) | 25 (≈ 140 µM) | 12.5 (≈ 70.1 µM) | 6.25 (≈ 35.1 µM) | 25 (≈ 140 µM) | 25 (≈ 140 µM) |  | 
CCCc1cccc(=O)c(O)c1 [IST_009_001, 2-hydroxy-4-propylcyclohepta-2,4,6-trienone] | 0.39 (≈ 2.38 µM) | 3.13 (≈ 19.1 µM) | 3.13 (≈ 19.1 µM) | 12.5 (≈ 76.1 µM) | 6.25 (≈ 38.1 µM) | 25 (≈ 152 µM) | 25 (≈ 152 µM) | 12.5 (≈ 76.1 µM) | 12.5 (≈ 76.1 µM) | 12.5 (≈ 76.1 µM) |  | 6.25 (≈ 38.1 µM) | 12.5 (≈ 76.1 µM) | 0.2 (≈ 1.22 µM) | antibacterial activities compared with the lead compound IST_001_002 (in words) [2]: better than those of the lead compound IST_001_002; Average daily weight gain ([3]; 5 ppm mixed with feed): 37.75 g/d * bird and 36.93 g/d * bird and 33.52 g/d * bird; Average weight gain ([3]; 5 ppm mixed with feed): 516.79 g and 520.00 g and 547.21 g; Total consumption ([3]; 5 ppm mixed with feed): 61 kg and 58.85 kg and 55.12 kg; feed conversion efficiency ([3]; 5 ppm mixed with feed): 2.886 and 2.846 and 2.808; Average daily weight gain ([3]; 15 ppm mixed with feed): 36.94 g/d * bird and 37.5 g/d * bird and 34.53 g/d * bird; Average weight gain ([3]; 15 ppm mixed with feed): 517.17 g and 525.50 g and 523.38 g; Total consumption ([3]; 15 ppm mixed with feed): 58.03 kg and 57.61 kg and 57.84 kg; feed conversion efficiency ([3]; 15 ppm mixed with feed): 2.807 and 2.741 and 2.889; weight gain and feed conversion efficiency of the experimental broilers (in words) ([3]; in feed): could enhance the weight gain and the feed conversion efficiency; Death rate (riemerella anatipestifer [4]; 10 mg/kg weight intramuscular): 0%; Morbidity (riemerella anatipestifer [4]; 10 mg/kg weight intramuscular): 40%; Death rate (riemerella anatipestifer [4]; 20 mg/kg weight intramuscular): 0%; Morbidity (riemerella anatipestifer [4]; 20 mg/kg weight intramuscular): 25%; effect on diarrhea compared with colistin sulfate or IST_001_002 groups (in words) ([5]; 30 ppm test group): obviously better than that of colistin sulfate or IST_001_002 groups; Average daily diarrhea rate ([5]; weaned pigs, 30 ppm in diet, 10 days): 16% and 17%; diarrhea rate of the tested pigs (in words) ([5]; weaned pigs, added in feeds, 10 days): could obviously reduce the diarrhea rate; MIC (riemerella anatipestifer [1]; read-out: Minimum inhibitory concentration (MIC), Riemerella anatipestifer WS): 3.13 µg/mL (≈ 19.1 µM); MIC (staphylococcus aureus; [20]): 12.5 µg/mL (≈ 76.1 µM); MIC (staphylococcus aureus; [21]): 12.5 µg/mL (≈ 76.1 µM)
CCCCc1cccc(=O)c(O)c1 [IST_009_019, 4-butyl-2-hydroxycyclohepta-2,4,6-trienone] | 0.39 (≈ 2.19 µM) | 12.5 (≈ 70.1 µM) | 6.25 (≈ 35.1 µM) | 50 (≈ 281 µM) | 50 (≈ 281 µM) | > 100 | 25 (≈ 140 µM) | 25 (≈ 140 µM) | 25 (≈ 140 µM) |  |  | 25 (≈ 140 µM) | 25 (≈ 140 µM) | 0.2 (≈ 1.12 µM) | 
O=c1cccc(Cc2ccccc2)cc1O [IST_009_004, 4-benzyl-2-hydroxycyclohepta-2,4,6-trienone] | 0.78 (≈ 3.67 µM) | 12.5 (≈ 58.9 µM) | 12.5 (≈ 58.9 µM) | 50 (≈ 236 µM) | 50 (≈ 236 µM) | 6.25 (≈ 29.4 µM) | 50 (≈ 236 µM) | 12.5 (≈ 58.9 µM) | 25 (≈ 118 µM) | 12.5 (≈ 58.9 µM) | 6.25 (≈ 29.4 µM) | 25 (≈ 118 µM) | 25 (≈ 118 µM) | 0.2 (≈ 0.942 µM) | 
Colistin sulfate [reference compound] |  |  |  |  |  |  |  |  |  |  |  |  |  |  | Average daily diarrhea rate ([5]; weaned pigs, 60 ppm in diet, 10 days): 30% and 33%
CO/N=C(\C(=O)N[C@@H]1C(=O)N2C(C(=O)O)=C(COC(C)=O)CS[C@H]12)c1csc(N)n1 [Cefotaxime, reference compound] |  |  |  |  |  |  |  |  |  |  |  |  |  |  | Death rate (riemerella anatipestifer [4]; 10 mg/kg weight intramuscular): 0%; Morbidity (riemerella anatipestifer [4]; 10 mg/kg weight intramuscular): 25%
CCCCCCCCc1cccc(=O)c(O)c1 [IST_009_030, 2-hydroxy-4-octylcyclohepta-2,4,6-trienone] | 6.25 (≈ 26.7 µM) | 25 (≈ 107 µM) | 12.5 (≈ 53.3 µM) | > 100 | > 100 | 25 (≈ 107 µM) | 25 (≈ 107 µM) | 25 (≈ 107 µM) | > 100 | 12.5 (≈ 53.3 µM) | 3.13 (≈ 13.4 µM) | 25 (≈ 107 µM) | > 100 | 0.39 (≈ 1.66 µM) | MIC (staphylococcus aureus; [20]): 12.5 µg/mL (≈ 53.3 µM); MIC (staphylococcus aureus; [21]): 12.5 µg/mL (≈ 53.3 µM)
